The supplement of paper PMC5580409

Test system: Plasmodium falciparum 3D7
Assay: pEC50, asexual blood-stage growth inhibition
Conditions: 72 h
Procedure: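 Held-out test set measured in the Guy lab in 2014 with the same procedure as the primary St. Jude screen. P. falciparum 3D7 blood-stage culture (2% hematocrit, 1% parasitemia) was treated with compound for 72 h at 37 °C, and growth was read by SYBR Green I fluorescence. EC50 came from a four-parameter Hill fit over a 10-point dilution series […].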

Row | SMILES | pEC50
1 | OC(CN1CCCCCC1)Cn1c2ccccc2c2ccccc21 (centres undefined) | < 4.82
2 | CCCCn1c(=N)n(CC(=O)c2ccc(Br)cc2)c2ccccc21 | < 4.82
3 | Cc1ccc(OCC(O)Cn2c(=N)n(CCN3CCOCC3)c3ccccc32)cc1 (centres undefined) | < 4.82
4 | CCN1/C(=C/c2sc3ccc(O)cc3[n+]2CC)C=Cc2cc(C)ccc21 | 6.3
5 | O=C(c1ccccc1)N1CCN(c2ccc([N+](=O)[O-])c(NC3CC3)c2)CC1 | < 4.82
6 | Cc1ccc2[nH]c(-c3ccc(NC(=O)c4ccc(C)c(C)c4)cc3)nc2c1 | 5.44
7 | CCOC(=O)C1=C(C)NC2=C(C(=O)CC(c3ccc(Cl)cc3)C2)C1c1cccc(OC)c1OC (centres undefined) | < 4.82
8 | N=c1n(CCN2CCCC2)c2ccccc2n1CC(O)c1ccc(Cl)c(Cl)c1 (centres undefined) | 5.88
9 | O=C(Nc1ccc([N+](=O)[O-])cc1O)C1CC1(c1ccccc1)c1ccccc1 (centres undefined) | < 4.82
10 | CCN(CC)c1nc(Nc2ccc(O)cc2)nc(Nc2cc(C)ccc2C)n1 | < 4.82
11 | COCCOC(=O)C1=C(C)NC2=C(C(=O)CC(c3ccc(OC)cc3)C2)C1c1ccc(Cl)cc1 (centres undefined) | 6.17
12 | Cc1ccc(OCCN(C)C(=O)c2cn(C3CCCCC3)cc(C(=O)NC(C)(C)C)c2=O)cc1 | 5.03
13 | Oc1ccc(Br)cc1CN1CCN(C2CCCCCC2)CC1 | 6.34
14 | O=C(CNCc1ccccc1)c1ccc(Br)cc1 | < 4.82
15 | OC(CNCCc1ccccc1)Cn1c2ccc(Br)cc2c2cc(Br)ccc21 (centres undefined) | 5.81
16 | CCCCNCC(O)COc1ccc(Cl)c(C)c1 (centres undefined) | 5.14
17 | O=c1c(Oc2ccc3ccccc3c2)c(C(F)(F)F)oc2c(CN3CCCC3)c(O)ccc12 | 5.27
18 | COc1cccc(CNCC(O)c2ccccc2)c1 (centres undefined) | < 4.82
19 | CCC(C(=O)Nc1ccc(-c2nc3ccccc3[nH]2)cc1)c1ccccc1 (centres undefined) | < 4.82
20 | COc1cc(CNn2nnnc2N)cc(Cl)c1OC | < 4.82
21 | CCOc1ccc(NC(=O)/C=C/c2ccccc2Cl)cc1 | 6.34
22 | OC(CNc1ccc(Cl)cc1)Cn1c2ccc(Cl)cc2c2cc(Cl)ccc21 (centres undefined) | < 4.82
23 | CN(C)c1nc(N(C#N)CCOc2ccccc2)nc(N2CCOCC2)n1 | < 4.82
24 | COc1ccc(Cl)cc1NCC(O)Cn1c2ccccc2c2ccccc21 (centres undefined) | < 4.82
25 | O=c1c(Oc2ccccc2)c(C(F)(F)F)oc2c(CN3CCCCC3)c(O)ccc12 | < 4.82
26 | CCn1c2ccccc2c2cc(CNC3CCCCC3)ccc21 | < 4.82
27 | Cc1ccc(C)c(Oc2c(C(F)(F)F)oc3c(CN4CCN(C)CC4)c(O)ccc3c2=O)c1 | < 4.82

Row | SMILES | pEC50
28 | Oc1ccc(Br)cc1CN1CCN(Cc2cccc3ccccc23)CC1 | 6.3
29 | Nc1ccc(C(=O)Nc2ccc(-c3nc4cc(NC(=O)c5ccc(N)cc5)ccc4[nH]3)cc2)cc1 | < 4.82
30 | O=C(NC1CCCCC1)c1cn(C2CC2)cc(C(=O)NC2CCN(Cc3ccccc3)CC2)c1=O | < 4.82
31 | CCOC(=O)c1cnc2ccccc2c1Nc1ccc2c(c1)OCCO2 | < 4.82
32 | OC(CNCc1ccccc1)Cn1c2ccc(Cl)cc2c2cc(Cl)ccc21 (centres undefined) | 5.73
33 | Cc1ccc(OCC(O)CNC2CCCC2)cc1C (centres undefined) | 5.85
34 | Cc1ccc2c(c1)c1c3n2CCCN(Cc2ccccc2F)C3CCC1 (centres undefined) | 5.01
35 | COc1ccc(S(=O)(=O)N2CCC(CO)(Cc3ccccc3C(F)(F)F)CC2)cc1 | < 4.82
36 | COc1ccc(CNC2CCCCC2)cc1OCC(O)CN(C)Cc1ccccc1 (centres undefined) | < 4.82
37 | COc1ccc(OC)c(NCC(O)Cn2c3ccc(Cl)cc3c3cc(Cl)ccc32)c1 (centres undefined) | < 4.82
38 | CCOC(=O)C1=C(C)NC2=C(C(=O)CC(c3ccco3)C2)C1c1ccc(OC)c(OC)c1 (centres undefined) | < 4.82
39 | OC(CN1CCN(Cc2ccccc2)CC1)Cn1c2ccc(Cl)cc2c2cc(Cl)ccc21 (centres undefined) | < 4.82
40 | O=C(Cc1ccccc1)Nc1ccc(-c2nc3cc(NC(=O)Cc4ccccc4)ccc3[nH]2)cc1 | < 4.82
41 | CC(C)N1CCN(Cc2cc(Br)ccc2O)CC1 | < 4.82
42 | CN1CCN(Cc2c(O)ccc3c(=O)c(Oc4ccc5ccccc5c4)c(C(F)(F)F)oc23)CC1 | < 4.82
43 | CC(C)(C)NC(=O)c1cn(C2CCCCC2)cc(C(=O)N2CCC(c3ccccc3)CC2)c1=O | < 4.82
44 | OC(CNCCc1ccccc1)c1ccccc1 (centres undefined) | 5.05
45 | Cc1ccc2c(c1)c1c3n2CCCN=C3CCC1 | < 4.82
46 | COc1ccc(OC)c(C2CC(=O)C3=C(C2)NC(=O)CC3c2ccc(Cl)cc2Cl)c1 (centres undefined) | < 4.82
47 | Cc1cccc(C2(c3cccc(C)c3)CC2C(=O)Nc2ccc([N+](=O)[O-])cc2O)c1 (centres undefined) | 5.36
48 | CCn1c(SCC(=O)Nc2cc(C(F)(F)F)ccc2Cl)nnc1-c1ccccc1Cl | < 4.82
49 | CC1=C(C(=O)OCCOc2ccccc2)C(c2ccc(F)cc2)C2=C(CC(c3ccccc3)CC2=O)N1 (centres undefined) | < 4.82
50 | C=CCN1C(=O)CS/C1=C\c1sc2ccccc2[n+]1CC | 5.31
51 | CN(C)c1ccc(NC(=O)/C=C/c2ccccc2Cl)cc1 | 4.99
52 | OC(CNc1cccc2ccccc12)Cn1c2ccccc2c2ccccc21 (centres undefined) | < 4.82
53 | Cc1cc(Nc2ccccc2C(F)(F)F)nc(-n2nc(C)cc2C)n1 | < 4.82
54 | CCOC(=O)c1c(C)oc2ccc(OC)cc12 | < 4.82

Row | SMILES | pEC50
55 | CC(C)c1ccc(/C=C/C(=O)Nc2ccc(C(C)C)cc2)cc1 | < 4.82
56 | CC(C)c1ccc(NC(=O)/C=C/c2ccccc2)cc1 | 5.16
57 | Cc1nn(C)c(C(=O)NNC(=O)Nc2ccc([N+](=O)[O-])cc2)c1Cl | 6.93
58 | Cc1ccc(C2CC(C(F)(F)F)n3nc(C(=O)N(Cc4ccccc4)Cc4ccccc4)cc3N2)cc1 (centres undefined) | < 4.82
59 | CCn1ncc(Cl)c1C(=O)Nc1ccc(C)c([N+](=O)[O-])c1 | < 4.82
60 | CCCCN(CCCC)CC(O)COc1ccccc1[N+](=O)[O-] (centres undefined) | 7.13
61 | Cc1ccc2c(c1)c1c3n2CCCN(Cc2ccc(C(C)C)cc2)C3CCC1 (centres undefined) | < 4.82
62 | C=CCn1c(=N)n(CC(O)c2cccc(Br)c2)c2ccccc21 (centres undefined) | 5.66
63 | CCn1c(CSCc2ccc(F)cc2)nnc1SCC(=O)Nc1cc(C(F)(F)F)ccc1Cl | < 4.82
64 | N=c1n(CCN2CCCCC2)c2ccccc2n1CC(O)c1cccc(Br)c1 (centres undefined) | 5.73
65 | Oc1ccc(Br)cc1CN1CCN(c2cccc(Cl)c2)CC1 | 6.06
66 | COc1cc(OC)cc(C(=O)Nc2ccc(-c3nc4cc(C)ccc4[nH]3)cc2)c1 | 5.29
67 | Cc1ccc(Nc2cc(N3CCN(C(=O)c4ccc(C)cc4)CC3)ncn2)cc1 | 6.13
68 | CCOC(=O)C1=C(C)NC2=C(C(=O)CC(c3ccc(OC)cc3)C2)C1c1cc(Br)c(O)c(OC)c1 (centres undefined) | 5.3
69 | O=C(Nc1ccncc1)C1CC1c1ccccc1 (centres undefined) | < 4.82
70 | O=S(=O)(c1ccccc1)N1CCC(CO)(Cc2ccccc2C(F)(F)F)CC1 | < 4.82
71 | CN(C)CCCn1c(=N)n(CC(O)c2ccc(Br)cc2)c2ccccc21 (centres undefined) | 5.54
72 | O=C1CC(c2ccc(Cl)c([N+](=O)[O-])c2)C2=C(CC(c3cccs3)CC2=O)N1 (centres undefined) | < 4.82
73 | Cc1cc(S(=O)(=O)N2CCC(CO)(Cc3cccc(C(F)(F)F)c3)CC2)c(C)cc1Cl | < 4.82
74 | CCCCNC(=O)c1cn(C2CCCCC2)cc(C(=O)NC2CCN(Cc3ccccc3)C2)c1=O (centres undefined) | < 4.82
75 | CC(C)(C)NC(=O)c1cn(C2CCCCC2)cc(C(=O)NC2CCN(Cc3ccccc3)CC2)c1=O | < 4.82
76 | COCCNCC(O)Cn1c2ccc(Cl)cc2c2cc(Cl)ccc21 (centres undefined) | 5.63
77 | CCCCNC(=O)c1cn(C2CCCCC2)cc(C(=O)NC2CCN(Cc3ccccc3)CC2)c1=O | < 4.82
78 | CCCn1nnnc1NCc1cc(Br)c(OCc2ccccc2)c(OC)c1 | < 4.82
79 | CCOC(=O)c1cnc2c(OC)cccc2c1Nc1cccc(C(C)=O)c1 | 5.55
